Measurements from ChEMBL document CHEMBL1144772, “Synthesis, in vitro pharmacology, and pharmacokinetic profiles of 2-[1-amino-1-carboxy-2-(9H-xanthen-9-yl)-ethyl]-1-fluorocyclopropanecarboxylic acid and its 6-heptyl ester, a potent mGluR2 antagonist” (Bioorg Med Chem, 2008).

How the values were obtained:
[1] = target: Metabotropic glutamate receptor 2 (Homo sapiens, UniProt Q14416); test: Displacement of [3H]-MGS0008 from mGluR2 expressed in CHO cells; format: cell-based
[2] = AUC (0 to infinity) in Sprague-Dawley rat at 10 mg/kg, po; format: ADME, organism-based; set-up: dose 10 mg/kg, route oral, time infinity; settings: plasma
[3] = Transformation of (+)-17 to (+)-16a in human liver S9 fraction at 3 uM after 60 mins
[4] = Transformation of (+)-17 to (+)-16a in rat liver S9 fraction at 3 uM after 60 mins
[5] = Cmax in Sprague-Dawley rat at 10 mg/kg, po; format: ADME, organism-based; set-up: dose 10 mg/kg, route oral; settings: in vivo
[6] = Transformation of (+)-17 to (+)-16a in monkey liver S9 fraction at 3 uM after 60 mins; settings: rhesus monkey
[7] = Half life in Sprague-Dawley rat at 10 mg/kg, po; format: ADME, organism-based; set-up: dose 10 mg/kg, route oral; settings: in vivo
[8] = Tmax in Sprague-Dawley rat at 10 mg/kg, po; format: ADME, organism-based; set-up: dose 10 mg/kg, route oral; settings: in vivo

Sequence of Metabotropic glutamate receptor 2 (Q14416 whole entry): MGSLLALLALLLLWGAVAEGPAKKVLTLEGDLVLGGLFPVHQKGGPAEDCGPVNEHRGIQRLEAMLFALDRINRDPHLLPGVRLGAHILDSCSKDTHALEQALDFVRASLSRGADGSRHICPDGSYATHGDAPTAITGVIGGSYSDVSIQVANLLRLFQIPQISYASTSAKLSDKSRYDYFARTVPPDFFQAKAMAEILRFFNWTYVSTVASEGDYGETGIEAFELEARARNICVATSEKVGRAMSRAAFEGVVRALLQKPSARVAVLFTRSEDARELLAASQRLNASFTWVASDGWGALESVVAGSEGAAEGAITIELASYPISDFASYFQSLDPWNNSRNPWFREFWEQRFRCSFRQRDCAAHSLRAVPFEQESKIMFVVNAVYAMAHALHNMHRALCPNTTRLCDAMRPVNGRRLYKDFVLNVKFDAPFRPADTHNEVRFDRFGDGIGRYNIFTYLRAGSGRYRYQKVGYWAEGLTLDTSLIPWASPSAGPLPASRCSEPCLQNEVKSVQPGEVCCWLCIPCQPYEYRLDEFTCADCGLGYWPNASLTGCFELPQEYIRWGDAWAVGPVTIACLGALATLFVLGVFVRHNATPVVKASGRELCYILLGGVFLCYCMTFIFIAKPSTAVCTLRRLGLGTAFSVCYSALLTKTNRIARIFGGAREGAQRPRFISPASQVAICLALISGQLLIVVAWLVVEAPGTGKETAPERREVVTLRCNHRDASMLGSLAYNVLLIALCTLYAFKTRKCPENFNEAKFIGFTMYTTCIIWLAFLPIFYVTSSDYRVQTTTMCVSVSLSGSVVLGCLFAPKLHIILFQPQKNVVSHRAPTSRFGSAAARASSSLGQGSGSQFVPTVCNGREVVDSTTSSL

Row | Structure (SMILES) | IC50 [1] [nM] | AUC(0-inf) [2] [µg·h/mL] | Cmax [5] [µg/mL] | half-life [7] [h] | Tmax [8] [h] | other results
1 | N[C@@](CC1c2ccccc2Oc2ccccc21)(C(=O)O)[C@@H]1C[C@@]1(F)C(=O)O | > 10000 |  |  |  |  | 
2 | N[C@](CC1c2ccccc2Oc2ccccc21)(C(=O)O)[C@H]1C[C@@H]1C(=O)O |  | 0.284 |  |  |  | 
3 | CCCCCCCOC(=O)[C@@]1(F)C[C@@H]1[C@@](N)(CC1c2ccccc2Oc2ccccc21)C(=O)O |  | 78 | 8.64 | 3.87 | 2 | transformation ratio at 1 h, 3 µM [3]: 12.1%; transformation ratio at 1 h, 3 µM [4]: 68.1%; transformation ratio at 1 h, 3 µM [6]: 7.3%
4 | N[C@](CC1c2ccccc2Oc2ccccc21)(C(=O)O)[C@H]1C[C@]1(F)C(=O)O | 3.49 | 3.31 | 0.308 | 5.05 | 2.67 | 
5 | NC(CC1c2ccccc2Oc2ccccc21)(C(=O)O)C1CC1(F)C(=O)O (racemic; form 2) | 211 |  |  |  |  | 
6 | NC(CC1c2ccccc2Oc2ccccc21)(C(=O)O)C1CC1(F)C(=O)O (racemic; form 1) | 4.45 |  |  |  |  | 
